Experimental data published in PubChem BioAssay AID248 (DTP/NCI, 2004).
Several values for one entry are separate records, joined by “and”; a condition that tells them apart may be missing. Equal entries are not always repeated. Inconclusive results and toxic doses are left out. Cut-off read from the data, not from the text of the source: active = T/C of 150% or more; inactive = T/C below 125%.

Tested on: L1210 leukemia ip in BDF1 mice, survival T/C
Assay: NCI In Vivo Anticancer Drug Screen. Data for tumor model L1210 Leukemia (intraperitoneal) in B6D2F1 (BDF1) mice
Conditions: endpoint: mean survival time, higher = longer survival
Procedure, shortened: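 Value reflects the ratio of survival in compound-treated mice to survival in vehicle-treated controls, with both groups carrying the same transplanted tumor.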

[1] = dose: 100.0 mg/kg/injection, schedule: Q01DX001 (ip), vehicle: other
[2] = dose: 200.0 mg/kg/injection, schedule: Q01DX001 (ip), vehicle: other
[3] = dose: 12.5 mg/kg/injection, schedule: Q01DX009 (ip), vehicle: saline
[4] = dose: 25.0 mg/kg/injection, schedule: Q01DX009 (ip), vehicle: saline
[5] = dose: 100.0 mg/kg/injection, schedule: Q04DX002 (ip), vehicle: Klucel (hydroxypropylcellulose) (HPC)
[6] = dose: 200.0 mg/kg/injection, schedule: Q04DX002 (ip), vehicle: Klucel (hydroxypropylcellulose) (HPC)
[7] = dose: 400.0 mg/kg/injection, schedule: Q04DX002 (ip), vehicle: Klucel (hydroxypropylcellulose) (HPC)

Measured: T/C

COc1ccc(CC#N)cc1
inactive: dose: 2.5 mg/kg/injection, schedule: Q04DX002 (ip), vehicle: Klucel (hydroxypropylcellulose) (HPC) 103 % of control | dose: 5.0 mg/kg/injection, schedule: Q01DX009 (ip), vehicle: Klucel (hydroxypropylcellulose) (HPC) 91 % of control | dose: 5.0 mg/kg/injection, schedule: Q04DX002 (ip), vehicle: Klucel (hydroxypropylcellulose) (HPC) 98 % of control | dose: 10.0 mg/kg/injection, schedule: Q01DX009 (ip), vehicle: Klucel (hydroxypropylcellulose) (HPC) 89 % of control | dose: 10.0 mg/kg/injection, schedule: Q04DX002 (ip), vehicle: Klucel (hydroxypropylcellulose) (HPC) 98 % of control and 110 % of control | dose: 20.0 mg/kg/injection, schedule: Q01DX009 (ip), vehicle: Klucel (hydroxypropylcellulose) (HPC) 92 % of control

CN(N=O)C(=O)C(=O)N(C)N=O
inactive: dose: 9.0 mg/kg/injection, schedule: Q01DX001 (ip), vehicle: other 109 % of control | dose: 13.0 mg/kg/injection, schedule: Q01DX001 (ip), vehicle: other 112 % of control | dose: 15.0 mg/kg/injection, schedule: Q01DX Z (ip), vehicle: saline 100 % of control | dose: 30.0 mg/kg/injection, schedule: Q01DX Z (ip), vehicle: saline 103 % of control | dose: 60.0 mg/kg/injection, schedule: Q01DX Z (ip), vehicle: saline 92 % of control | dose: 120.0 mg/kg/injection, schedule: Q01DX Z (ip), vehicle: saline 94 % of control

Nc1ccc2c(c1)CCC2=O
inactive: dose: 100.0 mg/kg/injection, schedule: Q04DX002 (ip), vehicle: saline with Tween-80 98 % of control | dose: 200.0 mg/kg/injection, schedule: Q04DX002 (ip), vehicle: saline with Tween-80 102 % of control | dose: 400.0 mg/kg/injection, schedule: Q04DX002 (ip), vehicle: saline with Tween-80 90 % of control

O=[N+]([O-])c1cccc(-c2cc(-c3cccs3)cc(-c3ccccc3)n2)c1
inactive: dose: 100.0 mg/kg/injection, schedule: Q04DX002 (ip), vehicle: gum acacia 93 % of control | dose: 200.0 mg/kg/injection, schedule: Q04DX002 (ip), vehicle: gum acacia 93 % of control | dose: 400.0 mg/kg/injection, schedule: Q04DX002 (ip), vehicle: gum acacia 93 % of control

CS(=O)(=O)N(c1ccccc1)c1ccccc1N
inactive: [1] 94 % of control | [2] 107 % of control | dose: 400.0 mg/kg/injection, schedule: Q01DX001 (ip), vehicle: other 88 % of control

CN(C)c1nnc(-c2ccc(Cl)cc2)nn1
inactive: dose: 100.0 mg/kg/injection, schedule: Q01DX001 (ip), vehicle: saline with Tween-80 96 % of control | dose: 200.0 mg/kg/injection, schedule: Q01DX001 (ip), vehicle: saline with Tween-80 92 % of control | dose: 400.0 mg/kg/injection, schedule: Q01DX001 (ip), vehicle: saline with Tween-80 88 % of control

CC(C)(C)C([NH-])=O.CC(C)(C)C([NH-])=O.[Cl][Pt+2][Cl]
inactive: dose: 6.25 mg/kg/injection, schedule: Q01DX009 (ip), vehicle: saline 86 % of control | [3] 94 % of control | dose: 12.5 mg/kg/injection, schedule: Q04DX003 (ip), vehicle: saline 116 % of control | [4] 101 % of control | dose: 25.0 mg/kg/injection, schedule: Q04DX003 (ip), vehicle: saline 102 % of control | dose: 50.0 mg/kg/injection, schedule: Q04DX003 (ip), vehicle: saline 109 % of control

CC(=O)Nc1ccc(/C=N\NC(=O)CCCC(=O)N/N=C/c2ccc(NC(C)=O)cc2)cc1
inactive: dose: 50.0 mg/kg/injection, schedule: Q01DX001 (ip), vehicle: saline 104 % of control | dose: 100.0 mg/kg/injection, schedule: Q01DX001 (ip), vehicle: saline 96 % of control | dose: 100.0 mg/kg/injection, schedule: Q01DX009 (ip), vehicle: saline 91 % of control | dose: 200.0 mg/kg/injection, schedule: Q01DX001 (ip), vehicle: saline 92 % of control | dose: 400.0 mg/kg/injection, schedule: Q01DX001 (ip), vehicle: saline 98 % of control | dose: 400.0 mg/kg/injection, schedule: Q01DX009 (ip), vehicle: saline 88 % of control

Cc1c(CC#N)cc(C)c2c3c([nH]c12)-c1ccccc1CC3
inactive: dose: 50.0 mg/kg/injection, schedule: Q04DX002 (ip), vehicle: Klucel (hydroxypropylcellulose) (HPC) 102 % of control | [5] 106 % of control | [6] 102 % of control | [7] 104 % of control

OC1c2cc(Cl)cc(Cl)c2-c2c(Cl)cc(Cl)cc21
inactive: dose: 100.0 mg/kg/injection, schedule: Q04DX003 (ip), vehicle: saline 96 % of control | dose: 200.0 mg/kg/injection, schedule: Q04DX003 (ip), vehicle: saline 98 % of control | dose: 400.0 mg/kg/injection, schedule: Q04DX003 (ip), vehicle: saline 106 % of control

Clc1cccc(Cl)c1C[n+]1ccccc1
inactive: dose: 9.38 mg/kg/injection, schedule: Q01DX001 (ip), vehicle: saline 110 % of control | dose: 18.75 mg/kg/injection, schedule: Q01DX001 (ip), vehicle: saline 110 % of control

Cc1cccnc1OCC(=O)O
inactive: [5] 101 % of control | [6] 104 % of control | [7] 93 % of control

CCOC(=O)c1cc(N(CCOS(C)(=O)=O)CCOS(C)(=O)=O)ccc1N
inactive: dose: 1.8 mg/kg/injection, schedule: Q01DX015 (ip), vehicle: saline 95 % of control | dose: 2.0 mg/kg/injection, schedule: Q01DX015 (ip), vehicle: saline 89 % of control | dose: 3.0 mg/kg/injection, schedule: Q01DX015 (ip), vehicle: saline 106 % of control | dose: 5.0 mg/kg/injection, schedule: Q01DX001 (ip), vehicle: saline 116 % of control | dose: 7.0 mg/kg/injection, schedule: Q01DX015 (ip), vehicle: saline 90 % of control

COC1CC2C(C[CH]1[Hg][Cl])C2(Cl)Cl (stereo unspecified)
inactive: dose: 3.13 mg/kg/injection, schedule: Q01DX009 (ip), vehicle: saline with Tween-80 103 % of control | dose: 6.25 mg/kg/injection, schedule: Q01DX009 (ip), vehicle: saline with Tween-80 94 % of control | dose: 6.25 mg/kg/injection, schedule: Q04DX003 (ip), vehicle: saline with Tween-80 105 % of control | dose: 12.5 mg/kg/injection, schedule: Q01DX009 (ip), vehicle: saline with Tween-80 96 % of control | dose: 12.5 mg/kg/injection, schedule: Q04DX003 (ip), vehicle: saline with Tween-80 96 % of control

O=C(O)c1ccc(C(=O)/C=N/O)nc1
inactive: dose: 100.0 mg/kg/injection, schedule: Q01DX009 (ip), vehicle: Klucel (hydroxypropylcellulose) (HPC) 90 % of control | dose: 200.0 mg/kg/injection, schedule: Q01DX009 (ip), vehicle: Klucel (hydroxypropylcellulose) (HPC) 93 % of control | dose: 400.0 mg/kg/injection, schedule: Q01DX009 (ip), vehicle: Klucel (hydroxypropylcellulose) (HPC) 97 % of control

CCC[CH2][Sn]([CH2]CCC)([O]C(C)=O)[O]C(C)=O
inactive: dose: 3.0 mg/kg/injection, schedule: Q01DX009 (ip), vehicle: saline 106 % of control | dose: 6.12 mg/kg/injection, schedule: Q01DX009 (ip), vehicle: saline 101 % of control | [3] 108 % of control | [4] 89 % of control

CN(C(=O)NCCCl)C1CCCCC1
inactive: dose: 75.0 mg/kg/injection, schedule: Q01DX001 (ip), vehicle: carboxymethylcellulose (CMC) 106 % of control

O=C(Nc1ccc([N+](=O)[O-])cc1Cl)Oc1ccc(F)cc1
inactive: dose: 100.0 mg/kg/injection, schedule: Q04DX003 (ip), vehicle: Klucel (hydroxypropylcellulose) (HPC) 95 % of control | dose: 200.0 mg/kg/injection, schedule: Q04DX003 (ip), vehicle: Klucel (hydroxypropylcellulose) (HPC) 96 % of control | dose: 400.0 mg/kg/injection, schedule: Q04DX003 (ip), vehicle: Klucel (hydroxypropylcellulose) (HPC) 100 % of control

Oc1ccccc1C=Nc1ccccc1O.[Cu+2]
inactive: [1] 107 % of control | [2] 116 % of control

CC(=O)/C=C(\C)OC1CCCCC1
inactive: dose: 100.0 mg/kg/injection, schedule: Q04DX003 (ip), vehicle: saline with Tween-80 98 % of control | dose: 200.0 mg/kg/injection, schedule: Q04DX003 (ip), vehicle: saline with Tween-80 95 % of control | dose: 400.0 mg/kg/injection, schedule: Q04DX003 (ip), vehicle: saline with Tween-80 91 % of control

CCCCN(CCCC)CCNc1ccc(C)c2sc3ccccc3c(=O)c12
inactive: dose: 40.0 mg/kg/injection, schedule: Q01DX Z (ip), vehicle: carboxymethylcellulose (CMC) 104 % of control | dose: 600.0 mg/kg/injection, schedule: Q01DX Z (ip), vehicle: carboxymethylcellulose (CMC) 95 % of control
